According to patent publication US20220304996A1, “REBAMIPIDE FOR USE IN PROPHYLAXIS AND TREATMENT OF CELIAC DISEASE” (SQUARE POWER LTD., priority 2019, published 2022):

Legend:
Format in all cases: in vivo, human
[1] = system: celiac disease; assay: Elimination-provocation (gluten challenge) test: Gastrointestinal Symptom Rating Scale (GSRS); conditions: for GSRS (mean total score): rebamipide 100 mg three times a day
Text: To study the effect of rebamipide on the celiac disease, a gluten challenge test was employed. Adult patients admitted into the test were stabilized on a gluten-free diet (GFD) leading to disappearance of the disease symptoms for at least 12 months. All participants were previously diagnosed by a physician for the celiac disease using upper endoscopy and duodenal biopsy. The gluten-free diet adherence was confirmed by high villous height/crypt depth ratio (Vh/Cd>2-3) and decline in anti-tTG antibody levels (less than 10 U/mL) after the exclusion of gluten from the diet.
Patients were divided into two groups taking either rebamipide 100 mg three times a day or placebo just before each major meal. Both groups continued the gluten-free diet. The gluten challenge test was carried out three month (day 90) after the start of the treatment. Patients were given one slice of white bread comprising about 2.7 g of wheat gluten every day for the period of 6 weeks but otherwise maintained their usual gluten-free diet. Both groups continued receiving either rebamipide or placebo treatment.
CD symptoms were weekly evaluated by the Gastrointestinal Symptom Rating Scale (GSRS) questionnaire, an instrument that is widely used in research on celiac disease and other gastrointestinal disorders (Svedlund J, Sjodin I, Dotevall G. GSRS—a clinical rating scale for gastrointestinal symptoms in patients with irritable bowel syndrome and peptic ulcer disease. Dig Dis Sci 1988; 33:129-134). It consists of 15 questions that are grouped into five domains (diarrhea, abdominal pain, indigestion, constipation, and reflux), which are combined into a total score calculated as a mean of all 15 questions. The scoring is based on a Likert scale from 1 to 7 points, where 1 point indicates minimal gastrointestinal symptoms and 7 points the most severe symptoms.

[2] = system: intestinal permeability; assay: Elimination-provocation (gluten challenge) test: urinary lactulose/mannitol (La/Ma) fractional excretion ratio; conditions: for La/Ma (urinary lactulose/mannitol fractional excretion ratio): rebamipide 100 mg three times a day
Text: To study the effect of rebamipide on the celiac disease, a gluten challenge test was employed. Adult patients admitted into the test were stabilized on a gluten-free diet (GFD) leading to disappearance of the disease symptoms for at least 12 months. All participants were previously diagnosed by a physician for the celiac disease using upper endoscopy and duodenal biopsy. The gluten-free diet adherence was confirmed by high villous height/crypt depth ratio (Vh/Cd>2-3) and decline in anti-tTG antibody levels (less than 10 U/mL) after the exclusion of gluten from the diet. Patients were divided into two groups taking either rebamipide 100 mg three times a day or placebo just before each major meal. Both groups continued the gluten-free diet. The gluten challenge test was carried out three month (day 90) after the start of the treatment. Patients were given one slice of white bread comprising about 2.7 g of wheat gluten every day for the period of 6 weeks but otherwise maintained their usual gluten-free diet. Both groups continued receiving either rebamipide or placebo treatment. The intestinal permeability was measured using the standard urinary lactulose/mannitol (La/Ma) fractional excretion ratio at the beginning of the lest, before and after 6-week challenge. The La/Ma test is based on a different absorption of non-metabolized sugars. In the healthy intestine, monosaccharides (e.g. mannitol) are passively absorbed through the intestinal mucosa, while larger disaccharide molecules (e.g. lactulose) are normally almost not absorbed. On the contrary, patients with the celiac disease have a consistent increase in the absorption of lactulose (via the paracellular route) due to increased permeability of the intestine and a reduction in the absorption of mannitol (via the transcellular route) due to a reduction in surface area as a result of villous atrophy, resulting in an increase in the La/Ma ratio.

[3] = system: celiac disease; assay: Elimination-provocation (gluten challenge) test: duodenal biopsy, villous height to crypt depth ratio; conditions: for Vh/Cd (villous height to crypt depth ratio): duodenal biopsy
Text: (§1) To study the effect of rebamipide on the celiac disease, a gluten challenge test was employed. Adult patients admitted into the test were stabilized on a gluten-free diet (GFD) leading to disappearance of the disease symptoms for at least 12 months. All participants were previously diagnosed by a physician for the celiac disease using upper endoscopy and duodenal biopsy. The gluten-free diet adherence was confirmed by high villous height/crypt depth ratio (Vh/Cd>2-3) and decline in anti-tTG antibody levels (less than 10 U/mL) after the exclusion of gluten from the diet. Patients were divided into two groups taking either rebamipide 100 mg three times a day or placebo just before each major meal. Both groups continued the gluten-free diet. The gluten challenge test was carried out three month (day 90) after the start of the treatment. Patients were given one slice of white bread comprising about 2.7 g of wheat gluten every day for the period of 6 weeks but otherwise maintained their usual gluten-free diet. Both groups continued receiving either rebamipide or placebo treatment. Duodenal biopsy was performed at the beginning (day 0) and at the end (day 132) of the study period. Villous height to crypt depth ratio (Vh/Cd) was determined by measuring the mean height/mean depth of adjacent villi/crypts by a pathologist. The ratio of <2 is regarded as indicative of villous atrophy and crypt hyperplasia.

[4] = system: anti-tTG IgA antibody; assay: Elimination-provocation (gluten challenge) test: serum anti-tTG IgA antibody ELISA
Text: as §1, with “Serum mean anti-tTG IgA antibody levels were” for “Duodenal biopsy was performed at the beginning (day 0) and at the end (day 132) of the study period. Villous height to crypt depth ratio (Vh/Cd) was”, “an enzyme-linked immunosorbent assay (ELISA) and” for “measuring”, “difference at baseline” for “mean height/mean depth of adjacent villi/crypts by a pathologist. The ratio of <2 is regarded as indicative of villous atrophy”, “after 6-week challenge was compared.” for “crypt hyperplasia.”

[5] = day 132, after 6-week gluten challenge, rebamipide 100 mg three times a day

## O=C(NC(Cc1cc(=O)[nH]c2ccccc12)C(=O)O)c1ccc(Cl)cc1 (stereo not drawn) [Rebamipide, 2-[(4-chlorobenzoyl)amino]-3-(2-oxo-1H-quinolin-4-yl)propanoic acid]
[1]; at the end of the study (day 132)
  difference in mean GSRS scores, rebamipide lower than placebo: 0.6 units
[1]; day 0 (baseline), adult celiac patients on gluten-free diet
  GSRS (mean total score): 2.0
[1]; day 90, after three month pretreatment, before gluten challenge
  GSRS (mean total score): 1.7
[1]; day 132, after 6-week gluten challenge (about 2.7 g wheat gluten every day)
  GSRS (mean total score): 1.8
[2]; at the end of the gluten challenge
  La/Ma ratio versus baseline: remained near the baseline
[2]; day 0 (baseline)
  La/Ma (urinary lactulose/mannitol fractional excretion ratio): 0.057
[2]; day 90, before gluten challenge
  La/Ma (urinary lactulose/mannitol fractional excretion ratio): 0.038
[2]; day 132, after 6-week gluten challenge
  La/Ma (urinary lactulose/mannitol fractional excretion ratio): 0.048
[3]; after 6 weeks of daily gluten intake
  change from baseline to post treatment in villus height to crypt depth ratio: didn't exhibit negative changes
[3]; day 0 (baseline)
  Vh/Cd (villous height to crypt depth ratio): 2.9
[3]; [5]
  Vh/Cd (villous height to crypt depth ratio): 3.1
[4]; after the gluten challenge
  mean anti-tTG IgA antibody titers: < 10 U/ml
[4]; day 0 (baseline)
  anti-tTG IgA (serum mean antibody level): 3.9 U/ml
[4]; day 90, before gluten challenge, rebamipide 100 mg three times a day
  anti-tTG IgA (serum mean antibody level): 4.3 U/ml
[4]; [5]
  anti-tTG IgA (serum mean antibody level): 7.8 U/ml
